Test results taken from US12391671B2, “Allosteric EGFR inhibitors and methods of use thereof” (Dana-Farber Cancer Institute, Inc., priority 2019, dated 2025).
pIC50: −log10 of the molar value. Counter-ions that a name gives are not always drawn. Like-named read-outs stand apart in the source and are kept apart here.

Key:
EGFR L858R/T790M = EGFR L858R/T790M (Homo sapiens (Human), UniProt P00533, L858R/T790M); assay: HTRF-based EGFR biochemical assay (L858R/T790M); settings: 100 μM ATP, enzyme 0.02 nM
EGFR L858R/T790M, sequence (P00533 25-1210 T790M/L858R): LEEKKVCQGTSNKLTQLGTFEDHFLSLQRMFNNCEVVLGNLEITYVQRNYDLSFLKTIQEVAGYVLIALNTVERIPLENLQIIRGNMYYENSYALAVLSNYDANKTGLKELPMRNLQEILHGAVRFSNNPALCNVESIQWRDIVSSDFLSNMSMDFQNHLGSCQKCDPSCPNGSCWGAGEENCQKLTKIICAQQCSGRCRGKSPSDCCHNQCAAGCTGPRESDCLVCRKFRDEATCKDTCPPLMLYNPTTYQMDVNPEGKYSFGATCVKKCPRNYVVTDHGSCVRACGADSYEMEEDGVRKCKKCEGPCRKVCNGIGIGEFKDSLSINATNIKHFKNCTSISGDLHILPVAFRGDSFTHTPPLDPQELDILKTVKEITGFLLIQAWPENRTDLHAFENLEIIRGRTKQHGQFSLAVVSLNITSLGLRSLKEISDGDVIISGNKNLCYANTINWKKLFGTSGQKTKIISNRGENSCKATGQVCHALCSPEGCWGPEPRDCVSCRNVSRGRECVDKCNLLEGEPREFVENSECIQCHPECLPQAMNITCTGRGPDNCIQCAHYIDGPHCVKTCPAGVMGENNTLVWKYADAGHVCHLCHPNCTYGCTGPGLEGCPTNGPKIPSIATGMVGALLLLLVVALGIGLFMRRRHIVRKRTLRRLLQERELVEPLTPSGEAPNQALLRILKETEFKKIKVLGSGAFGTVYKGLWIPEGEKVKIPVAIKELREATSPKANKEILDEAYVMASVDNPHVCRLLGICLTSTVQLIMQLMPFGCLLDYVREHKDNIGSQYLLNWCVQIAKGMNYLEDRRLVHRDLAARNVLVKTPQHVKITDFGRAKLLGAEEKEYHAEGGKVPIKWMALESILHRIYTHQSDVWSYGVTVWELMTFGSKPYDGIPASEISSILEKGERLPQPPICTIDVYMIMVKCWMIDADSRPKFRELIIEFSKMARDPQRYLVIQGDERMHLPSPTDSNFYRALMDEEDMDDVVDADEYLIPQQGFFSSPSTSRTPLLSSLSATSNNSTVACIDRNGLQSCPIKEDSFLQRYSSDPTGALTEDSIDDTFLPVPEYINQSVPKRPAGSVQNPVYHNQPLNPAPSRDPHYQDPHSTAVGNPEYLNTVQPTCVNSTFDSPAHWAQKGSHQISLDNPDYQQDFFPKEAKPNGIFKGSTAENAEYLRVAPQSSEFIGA
In short: (§1)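 Mutant EGFR (L858R 0.1 nM, L858R/T790M 0.02 nM) preincubated 30 min with compounds at room temperature in HEPES pH 7.0 buffer with Mg2+/Mn2+, then reacted 20 min with 1 μM biotinylated tyrosine kinase peptide and 100 μM ATP. Phosphorylation read by HTRF (Eu-cryptate anti-phosphotyrosine/streptavidin-XL665, 665/620 nm) after EDTA quench.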

[1] = test system: EGFR mutant L858R Ba/F3 cells; assay: Ba/F3 cell proliferation model (Cell Titer Glo), EGFR L858R; type: cell-based, murine; settings: 72 hours
Text: Example 26: Ba/F3 Cell Proliferation Models
The EGFR mutant L858R and L858R/T790M Ba/F3 cells have been previously described (Zhou, W., et al. Nature 462, 2009, 1070-1074). All cell lines were maintained in RPM 1640 (Cellgro; Mediatech Inc., Herndon. CA) supplemented with 10% FBS, 100 units/mL penicillin, 100 units/mL streptomycin. The EGFR I941R mutation was introduced via site directed mutagenesis using the Quick Change Site-Directed Mutagenesis kit (Stratagene; La Jolla, CA) according to the manufacturer's instructions. All constructs were confirmed by DNA sequencing. The constructs were shuttled into the retroviral vector JP1540 using the Cre-recombination system (Agilent Technologies, Santa Clara, CA). Ba/F3 cells were then infected with retrovirus per standard protocols, as described previously (Zhou, et al, Nature 2009). Stable clones were obtained by selection in puromycin (2 μg/ml).
Growth and inhibition of growth was assessed by the Cell Titer Glo® assay (Promega, Madison, WI) and was performed according to the manufacturer's instructions. The Cell Titer Glo® assay is a luminescence-based method used to determine the number of viable cells based on quantitation of the ATP present, which is directly proportional to the amount of metabolically active cells present. Ba/F3 cells of different EGFR genotypes were exposed to compounds as a single agent or in combination with 1 μg/mL cetuximab for 72 hours and the number of cells used per experiment was determined empirically as has been previously established (Zhou, et al., Nature 2009). All experimental points were set up in triplicates in 384-well plates and all experiments were repeated at least three times. […] The curves were fitted using a non-linear regression model with a sigmoidal dose response.

[2] = test system: EGFR mutant L858R/T790M Ba/F3 cells; assay: Ba/F3 cell proliferation model (Cell Titer Glo), EGFR L858R/T790M; type: cell-based, murine; settings: 72 hours
In short: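 Retrovirally transduced Ba/F3 cells exposed 72 h to compound alone or with 1 μg/mL cetuximab, triplicate points, repeated at least three times. Viability by Cell Titer Glo luminescence (ATP); curves fitted by non-linear sigmoidal dose-response regression.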

EGFR L858R = EGFR L858R (Homo sapiens (Human), UniProt P00533, L858R); assay: HTRF-based EGFR biochemical assay (L858R); settings: 100 μM ATP, enzyme 0.1 nM
EGFR L858R, sequence (P00533 25-1210 L858R): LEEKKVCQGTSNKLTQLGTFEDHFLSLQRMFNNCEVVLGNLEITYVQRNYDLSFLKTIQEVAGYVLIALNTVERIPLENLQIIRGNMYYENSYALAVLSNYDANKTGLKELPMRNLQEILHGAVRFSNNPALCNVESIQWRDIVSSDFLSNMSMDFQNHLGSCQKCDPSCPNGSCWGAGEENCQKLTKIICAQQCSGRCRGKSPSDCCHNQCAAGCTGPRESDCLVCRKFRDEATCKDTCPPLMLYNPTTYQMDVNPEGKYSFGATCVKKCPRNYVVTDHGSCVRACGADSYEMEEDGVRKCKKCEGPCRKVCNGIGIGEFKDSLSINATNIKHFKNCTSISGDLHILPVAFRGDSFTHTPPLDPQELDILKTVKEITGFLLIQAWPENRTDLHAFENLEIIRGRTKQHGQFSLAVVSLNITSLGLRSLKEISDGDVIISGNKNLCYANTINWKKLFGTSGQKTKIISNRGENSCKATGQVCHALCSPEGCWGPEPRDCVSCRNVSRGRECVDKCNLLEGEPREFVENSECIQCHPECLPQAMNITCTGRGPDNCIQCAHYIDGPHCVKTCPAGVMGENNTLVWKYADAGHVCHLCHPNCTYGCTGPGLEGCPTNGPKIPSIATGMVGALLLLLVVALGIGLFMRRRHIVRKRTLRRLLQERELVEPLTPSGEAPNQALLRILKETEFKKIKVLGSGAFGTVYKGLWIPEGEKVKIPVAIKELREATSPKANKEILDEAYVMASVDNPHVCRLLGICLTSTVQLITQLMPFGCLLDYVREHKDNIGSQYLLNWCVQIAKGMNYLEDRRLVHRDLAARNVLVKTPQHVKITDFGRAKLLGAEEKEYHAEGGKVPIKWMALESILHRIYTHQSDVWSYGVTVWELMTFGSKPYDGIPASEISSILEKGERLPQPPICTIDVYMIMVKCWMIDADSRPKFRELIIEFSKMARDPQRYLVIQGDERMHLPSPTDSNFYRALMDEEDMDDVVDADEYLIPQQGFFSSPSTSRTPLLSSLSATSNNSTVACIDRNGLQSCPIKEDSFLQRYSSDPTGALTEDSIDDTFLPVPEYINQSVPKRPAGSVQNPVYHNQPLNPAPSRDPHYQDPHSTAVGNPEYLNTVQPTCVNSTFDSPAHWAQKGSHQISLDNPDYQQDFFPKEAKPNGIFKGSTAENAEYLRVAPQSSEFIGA
In short: as §1

[3] = Mus musculus, BaF3, single agent, read-out: Cell IC50 BaF3 EGFR L858R
[4] = in combination with 1 μg/mL cetuximab, read-out: Cell IC50 BaF3 EGFR L858R (+cetux.)
[5] = Mus musculus, BaF3, single agent, read-out: Cell IC50 BaF3 EGFR L858R/T790M
[6] = in combination with 1 μg/mL cetuximab, read-out: Cell IC50 BaF3 EGFR L858R/T790M (+cetux.)

| SMILES | pIC50 (EGFR L858R/T790M) | pIC50 [1, 3] | pIC50 [1, 4] | pIC50 [2, 5] | pIC50 [2, 6] | pIC50 (EGFR L858R) | pIC50 ([1]; single agent, read-out: Cell IC50 BaF3 EGFR L858R) | pIC50 ([2]; single agent, read-out: Cell IC50 BaF3 EGFR L858R/T790M) |
| --- | --- | --- | --- | --- | --- | --- | --- | --- |
| CN1CCC(c2ccc(-c3cc4ccn(C(c5nc6ccccc6[nH]5)c5cc(F)ccc5O)c(=O)c4cc3F)cc2)CC1 (centres unmarked) [Compound 073, 2-[1H-benzimidazol-2-yl-(5-fluoro-2-hydroxy-phenyl)methyl]-7-fluoro-6-[4-(1-methyl-4-piperidy)phenyl]-isoquinolin-1-one] | 7.85 | 6.03 | – | 6.24 | 7.70 | 7.68 | – | – |
| Cc1c[nH]c(C(c2cccc(F)c2)N2Cc3ccc(-c4ccc(C5CCN(C)CC5)cc4)cc3C2=O)n1 (centres unmarked) [Compound 086, 2-[(3-fluorophenyl)-(4-methyl-1H-imidazol-2-yl)methyl]-6-[4-(1-methyl-4-piperidyl)phenyl]isoindolin-1-one] | 7.60 | 5.44 | – | 5.49 | – | < 7.00 | – | – |
| CN1CCC(c2ccc(-c3ccc4ccn(C(c5ccccc5)c5nc6ccccc6[nH]5)c(=O)c4c3F)cc2)CC1 (centres unmarked) [Compound 071] | 7.70 | 5.92 | – | 5.86 | 6.48 | < 7.00 | – | – |
| Cc1c[nH]c(C(c2cc(F)ccc2O)N2Cc3ccc(-c4ccc(C5CCN(C)CC5)cc4)cc3C2=O)n1 (centres unmarked) [Compound 085, 2-[(5-Fluoro-2-hydroxy-phenyl)-(4-methyl-1H-imidazol-2-yl)methyl]-6-[4-(1-methyl-4-piperidyl)phenyl]isoindolin-1-one] | 7.55 | 6.11 | – | 5.89 | 7.30 | 7.89 | – | – |
| CN1CCC(c2ccc(-c3ccc4cn(C(c5nc6ccccc6[nH]5)c5cc(F)ccc5O)nc4c3)cc2)CC1 (centres unmarked) [Compound 100, 2-((1H-Benzo[d]imidazol-2-yl)(6-(4-(1-methylpiperidin-4-yl)phenyl)-2H-indazol-2-yl)methyl)-4-fluorophenol; trifluoroacetate] | 8.40 | 5.70 | – | 6.28 | – | 7.85 | – | – |
| CN1CCC(c2ccc(-c3ccc4c(c3)C(=O)N([C@@H](c3nc5ccccc5[nH]3)c3cc(F)ccc3O)C4)cc2)CC1 [Compound 022, 2-[(R)-1H-benzimidazol-2-yl-(5-fluoro-2-hydroxy-phenyl)methyl]-6-[4-(1-methyl-4-piperidyl)phenyl]isoindolin-1-one] | 10.00 | – | 7.40 | – | 8.30 | 9.52 | 6.19 | 6.42 |
| CN1CCC2(c3ccc(-c4ccc5c(c4)C(=O)N(C(c4nc6ccccc6[nH]4)c4cc(F)ccc4O)C5)cc3)CC2C1 (centres unmarked) [Compound 079, 2-[1H-benzimidazol-2-yl-(5-fluoro-2-hydroxy-phenyl)methyl]-6-[4-(3-methyl-3-azabicyclo[4.1.0]heptan-6-yl)phenyl]isoindolin-1-one; dihydrochloride] | 9.10 | 6.08 | – | 6.72 | 8.15 | 8.52 | – | – |
| Cc1nc(C(c2cc(F)ccc2O)N2Cc3ccc(-c4ccc(C5CCN(C)CC5)cc4)cc3C2=O)[nH]c1C (centres unmarked) [Compound 087, 2-[(4,5-dimethyl-1H-imidazol-2-yl)-(5-fluoro-2-hydroxy-phenyl)methyl]-6-[4-(1-methyl-4-piperidyl)phenyl]isoindolin-1-one] | 7.60 | 5.86 | – | 5.88 | – | < 7.00 | – | – |

Now from value to compound, other results behind:

| pIC50 (EGFR L858R/T790M) | pIC50 [1, 3] | pIC50 [1, 4] | pIC50 [2, 5] | pIC50 [2, 6] | pIC50 (EGFR L858R) | SMILES | pIC50 ([1]; single agent, read-out: Cell IC50 BaF3 EGFR L858R) | pIC50 ([2]; single agent, read-out: Cell IC50 BaF3 EGFR L858R/T790M) |
| --- | --- | --- | --- | --- | --- | --- | --- | --- |
| 9.40 | 5.41 | 6.74 | 6.03 | 7.70 | 8.52 | CN1CCC(c2ccc(-c3ccc4ncn(C(c5nc6ccccc6[nH]5)c5cc(F)ccc5O)c(=O)c4n3)cc2)CC1 (centres unmarked) [Compound 009, 3-((1H-Benzo[d]imidazol-2-yl)(5-fluoro-2-hydroxyphenyl)methyl)-6-(4-(1-methylpiperidin-4-yl)phenyl)pyrido[3,2-d]pyrimidin-4(3H)-one 2,2,2-trifluoroacetate] | – | – |
| 9.00 | 6.16 | – | 6.51 | 7.70 | 8.52 | CN1CCC(c2ccc(-c3ccc4c(c3)C(=S)N(C(c3nc5ccccc5[nH]3)c3cc(F)ccc3O)C4)cc2)CC1 (centres unmarked) [Compound 078, 2-[1H-benzimidazol-2-yl-(5-fluoro-2-hydroxy-phenyl)methyl]-6-[4-(1-methyl-4-piperidyl)phenyl]isoindoline-1-thione;dihydrochloride] | – | – |
| 9.30 | 5.96 | 7.22 | 6.55 | 8.30 | 8.70 | CN1CCC(c2ccc(-c3ccc4ncn(C(c5nc6ccccc6[nH]5)c5cc(F)ccc5O)c(=O)c4c3)cc2)CC1 (centres unmarked) [Compound 006, 3-[1H-Benzimidazol-2-yl-(5-fluoro-2-hydroxy-phenyl)methyl]-6-[4-(1-methyl-4-piperidyl)-phenyl]quinazolin-4-one;hydrochloride] | – | – |
| 9.40 | 6.62 | 7.52 | 7.05 | 8.00 | 9.00 | CN1CCC(c2ccc(-c3ccc4ncn(C(c5nc6ccccc6[nH]5)c5cc(F)ccc5O)c(=O)c4c3F)cc2)CC1 (centres unmarked) [Compound 004, 3-((1H-Benzo[d]imidazol-2-yl)(5-fluoro-2-hydroxyphenyl)methyl)-5-fluoro-6-(4-(1-methylpiperidin-4-yl)phenyl)quinazolin-4(3H)-one 2,2,2-trifluoroacetate] | – | – |
| 8.70 | 5.98 | – | 6.05 | 7.30 | 8.05 | CN1CCC(c2ccc(-c3ccc4ccn(C(c5nc6ccccc6[nH]5)c5cc(F)ccc5O)c(=O)c4c3)cc2)CC1 (centres unmarked) [Compound 063, 2-[1H-benzimidazol-2-yl-(5-fluoro-2-hydroxy-phenyl)methyl]-7-[4-(1-methyl-4-piperidyl)phenyl]isoquinolin-1-one] | – | – |
| 9.22 | 6.30 | – | 6.68 | 8.00 | 8.52 | CN1CCC(c2ccc(-c3ccc4c(c3F)C(=O)N(C(c3nc5ccccc5[nH]3)c3cc(F)ccc3O)C4)cc2F)CC1 (centres unmarked) [Compound 080, 2-[1H-benzimidazol-2-yl-(5-fluoro-2-hydroxy-phenyl)methyl]-7-fluoro-6-[3-fluoro-4-(1-methyl-4-piperidyl)phenyl]isoindolin-1-one; dihydrochloride] | – | – |
| 8.70 | 6.04 | – | 6.35 | 7.30 | 8.70 | COc1c(-c2ccc(C3CCN(C)CC3)cc2)ccc2ncn(C(c3nc4ccccc4[nH]3)c3cc(F)ccc3O)c(=O)c12 (centres unmarked) [Compound 077, 3-[1H-benzimidazol-2-yl-(5-fluoro-2-hydroxy-phenyl)methyl]-5-methoxy-6-[4-(1-methyl-4-piperidyl)phenyl]quinazolin-4-one;dihydrochloride] | – | – |
| 9.00 | 6.09 | – | 7.00 | 8.00 | 8.40 | CN1CCC(c2ccc(-c3ccc4cn(C(c5nc6ccccc6[nH]5)c5cc(F)ccc5O)nc4c3Cl)cc2)CC1 (centres unmarked) [Compound 092, 2-[1H-benzimidazol-2-yl-[7-chloro-6-[4-(1-methyl-4-piperidyl)phenyl]-indazol-2-yl]methyl]-4-fluoro-phenol; dihydrochloride] | – | – |
| 8.70 | 7.05 | – | 6.85 | 7.52 | 8.70 | CN1CCC(c2ccc(-c3ccc4ncn(C(c5nc6ccccc6[nH]5)c5cc(F)ccc5O)c(=O)c4c3C(F)(F)F)cc2)CC1 (centres unmarked) [Compound 076, 3-[1H-benzimidazol-2-yl-(5-fluoro-2-hydroxy-phenyl)methyl]-6-[4-(1-methyl-4-piperidyl)phenyl]-5-(trifluoromethyl)quinazolin-4-one; dihydrochloride] | – | – |
